These results are taken from patent US20190135834A1, “5-SUBSTITUTED AZABENZIMIDAZOLE DERIVATIVE HAVING ???? ACTIVATION ACTION” (Shionogi & Co., Ltd., priority 2016, published 2019).

The target in this experiment is T1, Human AMPK α2ß2γ1 (Homo sapiens, UniProt O43741+P54646).
T1 construct: The full length cDNAs of human AMPK ß2 (NM_005399.3) and human AMPK α2 (NM_006252.3); The full length cDNAs of human AMPK ß2 (NM_005399.3); 6xHis (N); made in house; host or cells: Escherichia coli BL21 CodonPlus (DE3)-RIL
Briefly: Test Example 2: evaluation of an activator for AMP-activated protein kinase (AMPK), LabChip mobility shift assay with CaMKK2-phosphorylated enzyme. Format: biochemical. The following applies: for EC150 (compound concentration showing 150% relative to the control (100%)): FL-Peptide 7 substrate, 25° C., 2 hours; for Emax: relative to control (100%), read-out: Emax (maximum rate of increase in activity within the measurement range). The method, boiled down:
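E. coli-expressed His-tagged human AMPK α2β2γ1 preactivated with GST-CaMKK2 (0.2 mM ATP, 25° C, 1–1.5 h), preincubated 10 min with compound (1% DMSO), then reacted 2 h at 25° C with 3 μM FL-Peptide 7 and 0.4 mM ATP in substrate solution, pH 7.0. Mobility-shift conversion rate gives % activity increase over no-compound control.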

Structures are written as SMILES.

T1 sequence (P54646 whole entry): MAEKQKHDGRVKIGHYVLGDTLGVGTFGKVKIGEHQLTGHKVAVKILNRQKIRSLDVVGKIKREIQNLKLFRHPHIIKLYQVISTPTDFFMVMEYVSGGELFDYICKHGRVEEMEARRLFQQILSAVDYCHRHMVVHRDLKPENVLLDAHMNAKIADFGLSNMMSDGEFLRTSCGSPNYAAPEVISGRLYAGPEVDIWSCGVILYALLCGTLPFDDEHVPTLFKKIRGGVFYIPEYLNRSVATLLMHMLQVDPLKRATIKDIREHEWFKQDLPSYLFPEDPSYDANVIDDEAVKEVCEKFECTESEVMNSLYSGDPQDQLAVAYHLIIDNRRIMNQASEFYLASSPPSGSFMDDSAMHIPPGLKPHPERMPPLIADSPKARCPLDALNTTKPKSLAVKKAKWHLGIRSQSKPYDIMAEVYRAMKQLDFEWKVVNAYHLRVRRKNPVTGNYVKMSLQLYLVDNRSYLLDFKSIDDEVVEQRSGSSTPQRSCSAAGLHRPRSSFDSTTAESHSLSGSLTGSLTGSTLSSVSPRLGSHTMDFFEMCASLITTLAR
T1 sequence (O43741 whole entry): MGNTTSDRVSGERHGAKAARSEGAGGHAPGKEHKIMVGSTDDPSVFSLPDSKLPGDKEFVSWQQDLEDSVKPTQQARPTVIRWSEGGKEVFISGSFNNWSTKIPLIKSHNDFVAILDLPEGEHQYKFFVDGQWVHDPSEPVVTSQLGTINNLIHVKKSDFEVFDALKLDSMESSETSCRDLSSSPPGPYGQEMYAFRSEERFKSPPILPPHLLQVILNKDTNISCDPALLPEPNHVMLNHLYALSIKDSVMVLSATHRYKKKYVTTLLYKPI
T1 sequence (P54619 whole entry partner): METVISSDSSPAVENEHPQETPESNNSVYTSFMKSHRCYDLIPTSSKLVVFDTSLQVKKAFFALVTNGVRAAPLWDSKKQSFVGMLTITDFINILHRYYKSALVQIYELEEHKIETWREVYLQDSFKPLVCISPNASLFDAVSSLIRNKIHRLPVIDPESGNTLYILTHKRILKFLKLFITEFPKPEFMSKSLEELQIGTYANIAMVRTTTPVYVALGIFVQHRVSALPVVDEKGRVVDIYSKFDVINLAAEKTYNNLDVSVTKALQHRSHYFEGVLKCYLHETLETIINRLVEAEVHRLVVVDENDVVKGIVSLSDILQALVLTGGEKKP

Regarding `O[C@@H]1CO[C@H]2[C@@H]1OC[C@H]2Oc1nc2nc(NC3CCc4cc(OCC(F)F)cc(F)c43)c(Cl)cc2[nH]1` (stereo partly drawn) [Compound I-2-75], the “EC150 (compound concentration showing 150% relative to the control (100%))” value was determined as 2.7 nM and the Emax was determined as 581%.
The like results for `CC(C)(O)C#Cc1cc(F)c2c(c1)CC[C@@H]2Nc1nc2nc(O[C@@H]3CO[C@H]4[C@@H]3OC[C@H]4O)[nH]c2cc1Cl` [Compound I-2-77] were, in that order, 3.8 nM and 650%.
As for `N#CCn1cc(-c2cc(F)c3c(c2)CC[C@@H]3Nc2nc3nc(O[C@@H]4CO[C@H]5[C@@H]4OC[C@H]5O)[nH]c3cc2Cl)cn1` [Compound I-2-78], the “EC150 (compound concentration showing 150% relative to the control (100%))” value is listed as 2.5 nM and the maximal effect (Emax) amounted to 692%.
